Among the data in ChEMBL document CHEMBL4699490, “Production of Highly Active Antiparasitic Compounds from the Controlled Halogenation of the Arrabidaea brachypoda Crude Plant Extract” (J Nat Prod, 2020) are IC50, CC50 and selectivity ratio values, retold here.

pIC50: −log10 of the molar value. A value given as a limit tells only on which side of the number the result lay.

The subject of one data set is Leishmania amazonensis. The data set is described as follows: Antiparasitic activity against intracellular Leishmania amazonensis amastigotes infected in mouse peritoneal macrophage measured after 72 hrs. Type of data set: functional, organism-based.
Data set [1] can be described thus: Cytotoxicity against Balb/c mouse peritoneal macrophage assessed as cell viability measured after 72 hrs by alamar blue assay. Type of data set: tissue-based. Conditions: peritoneal macrophages.
Data set [2] can be described thus: Selectivity index, ratio of CC50 for mouse peritoneal macrophages to IC50 for Leishmania amazonensis amastigotes infected in BALB/c mouse peritoneal macrophages. Conditions: read-out: Ratio CC50/IC50. Format: toxicity.
In a further data set the test system is Trypanosoma cruzi. The data set is described as follows: Antiparasitic activity against intracellular Trypanosoma cruzi amastigotes infected in mouse peritoneal macrophage measured after 72 hrs. Type of data set: functional, organism-based.
Data set [3] can be described thus: Selectivity index, ratio of CC50 for mouse peritoneal macrophages to IC50 for Trypanosoma cruzi amastigotes infected in BALB/c mouse peritoneal macrophages. Conditions: read-out: Ratio CC50/IC50. Type of data set: toxicity.

One may read the pIC50 as −log10 of the IC50, conventionally taken in molar units. The low end stands for a high IC50, the high end for a low IC50. Broadly, the CC50 is the concentration at which the toxic effect on the cells reaches its halfway point.

For the compound `COc1cc(O)cc2c1[C@@H](/C=C/c1ccc(O)cc1)[C@@H]1[C@@H](c3ccccc3)Oc3cc(O)cc(OC)c3[C@@H]1O2`, the pIC50 in the data set on Leishmania amazonensis was less than 4.70. Also, in data set [1], the half-maximal cytotoxic concentration (CC50) at 72 h was more than 20 µM.

`COc1ccc(/C=C/[C@@H]2c3c(OC)cc(O)cc3O[C@H]3c4c(OC)cc(O)cc4O[C@H](c4ccccc4)[C@@H]23)cc1` gave a negative-log IC50 (pIC50) in the data set on Leishmania amazonensis of 5.66. In addition, the CC50 at 72 h in data set [1] is more than 20 µM. In data set [2], the selectivity ratio came to 9.1.

With `COc1cc(O)cc2c1[C@@H](/C=C/c1ccccc1)[C@@H]1[C@@H](c3ccccc3)Oc3cc(O)cc(OC)c3[C@@H]1O2`, the negative logarithm of the IC50 (pIC50) with Leishmania amazonensis was 5.20. For the same compound, in data set [1], the CC50 at 72 h is more than 20 µM. Besides, the selectivity ratio in data set [2] came to 3.2.

Turning to `COc1ccc(/C=C/[C@@H]2c3c(OC)cc(O)c(Br)c3O[C@H]3c4c(OC)cc(O)c(Br)c4O[C@H](c4ccccc4)[C@@H]23)cc1`, the pIC50 is 5.33 with Trypanosoma cruzi and 5.44 with Leishmania amazonensis. Moreover, in data set [1], the 50% cytotoxic concentration (CC50) at 72 h is more than 100 µM. In addition, the selectivity ratio was more than 28 in data set [2] and more than 21 in data set [3].

For the compound `COc1ccc(/C=C/[C@@H]2c3c(OC)cc(O)c(Cl)c3O[C@H]3c4c(OC)cc(O)c(Cl)c4O[C@H](c4ccccc4)[C@@H]23)cc1`, the results for the pIC50 in the data set on Trypanosoma cruzi and in the data set with Leishmania amazonensis were 5.66 and 5.47, respectively. Besides, the CC50 at 72 h in data set [1] was more than 100 µM. In addition, the selectivity ratio in data set [2] is more than 29; in data set [3], more than 45.

On to `COc1cc(O)c(I)c2c1[C@@H](/C=C/c1ccccc1)[C@@H]1[C@@H](c3ccccc3)Oc3cc(O)cc(OC)c3[C@@H]1O2`, for which the pIC50 with Trypanosoma cruzi was 5.72; in the data set with Leishmania amazonensis it was less than 5.00. Also, in data set [1], the CC50 at 72 h is more than 100 µM. Besides, the selectivity ratio in data set [3] is more than 53.

In the case of `COc1cc(O)c(Br)c2c1[C@@H](/C=C/c1ccccc1)[C@@H]1[C@@H](c3ccccc3)Oc3c(Br)c(O)cc(OC)c3[C@@H]1O2`, the pIC50 is 5.80 in the data set on Trypanosoma cruzi and 5.77 in the data set on Leishmania amazonensis. The cytotoxic concentration (CC50) at 72 h in data set [1] was more than 100 µM. The values for the selectivity ratio in data set [2] and in data set [3] were more than 59 and more than 63, respectively.

As for `COc1ccc(/C=C/[C@@H]2c3c(OC)cc(O)cc3O[C@H]3c4c(OC)cc(O)c(I)c4O[C@H](c4ccccc4)[C@@H]23)cc1`, the pIC50 in the data set on Trypanosoma cruzi was 5.80; in the data set with Leishmania amazonensis it was 5.27. Also, the CC50 at 72 h in data set [1] was more than 100 µM. In addition, the selectivity ratio in data set [2] is more than 19; in data set [3], more than 63.

Regarding `COc1ccc(/C=C/[C@@H]2c3c(OC)cc(O)c(Cl)c3O[C@H]3c4c(OC)cc(O)cc4O[C@H](c4ccccc4)[C@@H]23)cc1`, the values for the negative logarithm of the IC50 (pIC50) with Trypanosoma cruzi and with Leishmania amazonensis were 5.85 and less than 5.00, respectively. The CC50 at 72 h in data set [1] is more than 100 µM. Moreover, the selectivity ratio in data set [3] was more than 71.

As for `COc1cc(O)c(Br)c2c1[C@@H]1Oc3c(Br)c(O)c(Br)c(OC)c3[C@@H](/C=C/c3ccc(O)cc3)[C@@H]1[C@@H](c1ccccc1)O2`, the negative logarithm of the IC50 (pIC50) in the data set on Trypanosoma cruzi was less than 5.00; with Leishmania amazonensis, 5.19. Besides, in data set [1], the CC50 at 72 h is more than 100 µM. Moreover, the selectivity ratio in data set [2] is more than 15.

Regarding `COc1cc(O)c(I)c2c1[C@@H](/C=C/c1ccc(O)cc1)[C@@H]1[C@@H](c3ccccc3)Oc3c(I)c(O)cc(OC)c3[C@@H]1O2`, the negative logarithm of the IC50 (pIC50) is 5.74 in the data set on Trypanosoma cruzi and 5.11 with Leishmania amazonensis. Further, the half-maximal cytotoxic concentration (CC50) at 72 h in data set [1] is more than 100 µM. Further, the results for the selectivity ratio in data set [2] and in data set [3] were more than 13 and more than 56, respectively.

With `COc1cc(O)c(I)c2c1[C@@H](/C=C/c1ccccc1)[C@@H]1[C@@H](c3ccccc3)Oc3c(I)c(O)cc(OC)c3[C@@H]1O2`, the negative-log IC50 (pIC50) in the data set on Trypanosoma cruzi is 5.19; in the data set with Leishmania amazonensis it was 5.41. For the same compound, the CC50 at 72 h in data set [1] was more than 100 µM. Further, the figures for the selectivity ratio in data set [2] and in data set [3] were more than 26 and more than 15, respectively.

As to `COc1cc(O)c(Br)c2c1[C@@H](/C=C/c1ccc(O)cc1)[C@@H]1[C@@H](c3ccccc3)Oc3c(Br)c(O)cc(OC)c3[C@@H]1O2`, the pIC50 was 5.08 in the data set on Trypanosoma cruzi and 5.60 in the data set with Leishmania amazonensis. In addition, the CC50 at 72 h in data set [1] is more than 100 µM. Besides, the selectivity ratio is more than 40 in data set [2] and more than 12 in data set [3].

With `COc1ccc(/C=C/[C@@H]2c3c(OC)c(Br)c(O)c(Br)c3O[C@H]3c4c(OC)cc(O)c(Br)c4O[C@H](c4ccccc4)[C@@H]23)cc1`, the pIC50 in the data set on Trypanosoma cruzi is 5.42; in the data set on Leishmania amazonensis it was 5.35. In data set [1], the CC50 at 72 h was more than 100 µM. The selectivity ratio in data set [2] is more than 22; in data set [3], more than 26.

Regarding `COc1ccc(/C=C/[C@@H]2c3c(OC)cc(O)c(I)c3O[C@H]3c4c(OC)cc(O)c(I)c4O[C@H](c4ccccc4)[C@@H]23)cc1`, the pIC50 in the data set with Trypanosoma cruzi was 5.60; with Leishmania amazonensis it was 5.33. For the same compound, the CC50 at 72 h in data set [1] was more than 100 µM. Moreover, the results for the selectivity ratio in data set [2] and in data set [3] were more than 21 and more than 40, respectively.

With `COc1cc(O)c(Br)c2c1[C@@H]1Oc3c(Br)c(O)c(Br)c(OC)c3[C@@H](/C=C/c3ccccc3)[C@@H]1[C@@H](c1ccccc1)O2`, the pIC50 with Trypanosoma cruzi was 5.54; with Leishmania amazonensis, 6.00. The CC50 at 72 h in data set [1] is more than 100 µM. The figures for the selectivity ratio in data set [2] and in data set [3] were more than 100 and more than 34, respectively.

Turning to `COc1ccc(/C=C/[C@@H]2c3c(OC)cc(O)c(Br)c3O[C@H]3c4c(OC)cc(O)cc4O[C@H](c4ccccc4)[C@@H]23)cc1`, the pIC50 in the data set on Trypanosoma cruzi is 5.44; with Leishmania amazonensis, 5.48. The CC50 at 72 h in data set [1] is more than 100 µM. Also, the selectivity ratio in data set [2] was more than 30; in data set [3], more than 28.

For the compound `COc1cc(O)c(Cl)c2c1[C@@H](/C=C/c1ccccc1)[C@@H]1[C@@H](c3ccccc3)Oc3cc(O)cc(OC)c3[C@@H]1O2`, the pIC50 in the data set with Trypanosoma cruzi was 5.85; in the data set on Leishmania amazonensis, 5.92. Further, the CC50 at 72 h in data set [1] is more than 100 µM. Further, the selectivity ratio was more than 83 in data set [2] and more than 71 in data set [3].

The compound `C[C@@H]1[C@H](O)[C@@H](C)/C=C/C=C/C=C/C=C/C=C/C=C/C=C/[C@H](O[C@@H]2O[C@H](C)[C@@H](O)[C@H](N)[C@@H]2O)C[C@@H]2O[C@](O)(C[C@@H](O)C[C@@H](O)[C@H](O)CC[C@@H](O)C[C@@H](O)CC(=O)O[C@H]1C)C[C@H](O)[C@H]2C(=O)O` [AMPHOTERICIN B] showed a negative-log IC50 (pIC50) in the data set with Leishmania amazonensis of 6.70. The CC50 at 72 h in data set [1] is more than 50 µM. In addition, the selectivity ratio in data set [2] is more than 217.

For the compound `O=C(Cn1ccnc1[N+](=O)[O-])NCc1ccccc1` [BENZNIDAZOLE], the negative logarithm of the IC50 (pIC50) in the data set with Trypanosoma cruzi is 5.85. Also, in data set [1], the 50% cytotoxic concentration (CC50) at 72 h is more than 100 µM. Also, the selectivity ratio in data set [3] is more than 35.
